Source: US20100068204A1, “4-ARYLOXYQUINOLIN-2(1H)-ONES AS MTOR KINASE AND PI3 KINASE INHIBITORS, FOR USE AS ANTI-CANCER AGENTS” (Wyeth, priority 2008, published 2010)
Read-outs that look alike come from different tables or passages of the source.

What was measured:
[1] = single- and repeat-dosing; cited from earlier work
[2] = test system: acute lymphoblastic leukemia xenograft; details: in vivo; cited from earlier work
[3] = test system: human tumor xenograft models; details: cited from earlier work
mTOR = mTOR (Homo sapiens, UniProt P42345); details: read-out: mTOR IC50; literature; mTOR complexes / mTOR enzymes; cited from earlier work
[4] = test system: MDA468 breast tumor cells; experiment: In vitro cell growth assay (MTS), MDA468; format: cell-based, human; details: Homo sapiens, 72 h, three days after drug treatment
Procedure, shortened: (§1)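 Tumor cells plated ~3000/well; inhibitors in DMSO added one day later (final DMSO 0.25%). After three days of treatment, viable cell density read by MTS conversion, absorbance at 490 nm. Effect expressed relative to untreated control growth.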

[5] = test system: LNCap prostate tumor cells; experiment: In vitro cell growth assay (MTS), LNCap; format: cell-based, human; details: Homo sapiens, LNCaP, 72 h, three days after drug treatment
Procedure, shortened: as §1

human TOR (FLAG-TOR) = human TOR (FLAG-TOR) (Homo sapiens, UniProt P42345); experiment: mTOR enzyme assay (DELFIA format, purified enzyme); format: biochemical; details: 800 ng/ml FLAG-TOR, 100 μM ATP, 1.25 μM His6-S6K; read-out: mTOR Kinase IC50
PI3Kα = PI3Kα (Homo sapiens, UniProt P42336); experiment: PI3Kα fluorescence polarization assay; format: biochemical; details: 20 μM PIP2, 25 μM ATP
Procedure, shortened: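 Kinase reaction in 20 mM HEPES pH 7.5, 2 mM MgCl2, 0.05% CHAPS with final 20 μM diC8-PIP2 and 25 μM ATP, 30-60 min at room temperature. Stopped with 10 nM TAMRA-labelled probe plus 2.5 uM GST-murine GRP; fluorescence polarization read after 90-110 minutes.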

PI3Kα, sequence (P42336 whole entry, species assumed): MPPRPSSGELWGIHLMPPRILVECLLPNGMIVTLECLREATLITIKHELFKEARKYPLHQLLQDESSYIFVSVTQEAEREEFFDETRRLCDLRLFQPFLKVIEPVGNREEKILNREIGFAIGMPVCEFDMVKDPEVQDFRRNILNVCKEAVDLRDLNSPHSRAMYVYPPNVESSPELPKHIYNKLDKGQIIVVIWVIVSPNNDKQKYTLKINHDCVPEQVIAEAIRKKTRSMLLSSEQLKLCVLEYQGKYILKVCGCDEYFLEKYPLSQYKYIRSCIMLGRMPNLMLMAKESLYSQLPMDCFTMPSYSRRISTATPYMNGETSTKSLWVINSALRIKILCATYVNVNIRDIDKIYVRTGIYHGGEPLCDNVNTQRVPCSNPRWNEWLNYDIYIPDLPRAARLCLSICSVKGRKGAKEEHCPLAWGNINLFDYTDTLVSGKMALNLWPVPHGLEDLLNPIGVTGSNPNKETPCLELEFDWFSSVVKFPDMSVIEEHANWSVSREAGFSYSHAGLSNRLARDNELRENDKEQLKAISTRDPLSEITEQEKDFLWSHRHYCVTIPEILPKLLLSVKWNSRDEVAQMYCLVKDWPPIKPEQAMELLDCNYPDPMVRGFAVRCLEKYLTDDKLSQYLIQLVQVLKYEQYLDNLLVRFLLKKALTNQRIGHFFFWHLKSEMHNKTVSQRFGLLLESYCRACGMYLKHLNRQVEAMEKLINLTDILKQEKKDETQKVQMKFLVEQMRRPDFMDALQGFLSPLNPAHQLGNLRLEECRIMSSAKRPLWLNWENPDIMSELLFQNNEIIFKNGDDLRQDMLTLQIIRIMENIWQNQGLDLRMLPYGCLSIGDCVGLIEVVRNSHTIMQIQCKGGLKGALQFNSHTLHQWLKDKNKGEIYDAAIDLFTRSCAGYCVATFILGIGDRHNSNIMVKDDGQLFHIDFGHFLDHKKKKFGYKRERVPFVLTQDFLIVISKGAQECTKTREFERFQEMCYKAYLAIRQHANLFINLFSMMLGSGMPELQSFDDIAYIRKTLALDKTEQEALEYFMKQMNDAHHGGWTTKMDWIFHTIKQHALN
PI3Kα, sequence (P27986 whole entry partner, species assumed): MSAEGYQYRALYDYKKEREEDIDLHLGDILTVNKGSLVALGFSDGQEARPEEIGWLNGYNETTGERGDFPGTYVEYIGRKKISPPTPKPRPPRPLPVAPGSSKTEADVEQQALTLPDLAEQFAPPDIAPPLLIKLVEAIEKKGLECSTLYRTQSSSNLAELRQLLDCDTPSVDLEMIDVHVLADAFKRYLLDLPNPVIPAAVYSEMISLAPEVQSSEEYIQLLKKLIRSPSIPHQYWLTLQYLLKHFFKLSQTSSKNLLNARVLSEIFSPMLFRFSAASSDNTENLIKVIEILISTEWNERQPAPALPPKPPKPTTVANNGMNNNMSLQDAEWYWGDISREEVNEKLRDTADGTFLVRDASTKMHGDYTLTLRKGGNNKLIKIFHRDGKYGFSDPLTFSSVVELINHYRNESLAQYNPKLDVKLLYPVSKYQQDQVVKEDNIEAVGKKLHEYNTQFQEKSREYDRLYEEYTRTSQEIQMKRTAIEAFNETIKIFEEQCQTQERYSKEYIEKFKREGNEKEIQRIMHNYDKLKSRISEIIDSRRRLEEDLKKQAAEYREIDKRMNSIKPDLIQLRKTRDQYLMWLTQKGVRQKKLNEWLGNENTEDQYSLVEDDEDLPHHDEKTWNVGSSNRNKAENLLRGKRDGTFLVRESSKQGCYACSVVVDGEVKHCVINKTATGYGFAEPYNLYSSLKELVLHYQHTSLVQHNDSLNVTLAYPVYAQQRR

Row | SMILES | IC50 [4] [µM] | IC50 [5] [µM] | IC50 (human TOR (FLAG-TOR)) [µM] | IC50 (PI3Kα) [µM] | further results
1 | O=c1cc(Oc2cccnc2)c2ccccc2[nH]1 [Example 119, 4-(pyridin-3-yloxy)quinolin-2(1H)-one] |  |  |  |  | melting point: 242 to 243 °C
2 | O=C1NC(=O)/C(=C/c2ccc3nccc(-c4ccncc4)c3c2)S1 [GSK-1059615] |  |  |  |  | exposure in phase 1 clinical study [1]: lack of sufficient exposure
3 | CN(Cc1cccnc1)c1cccc(Oc2cc(=O)[nH]c3ccccc23)c1 [Example 161, 4-{3-[methyl(pyridin-3-ylmethyl)amino]phenoxy}quinolin-2(1H)-one] |  |  |  |  | melting point: 187 to 193 °C (dec.)
4 | O=c1cc(Oc2ccccn2)c2ccccc2[nH]1 [Example 137, 4-(pyridin-2-yloxy)quinolin-2(1H)-one] |  |  |  |  | melting point: > 360 °C
5 | O=c1cc(Oc2cccc(OCc3ccccc3)c2)c2ccccc2[nH]1 [Example 57, 4-[3-(benzyloxy)phenoxy]quinolin-2(1H)-one] |  |  |  |  | melting point: 262 to 265 °C
6 | CO[C@H]1C[C@@H]2CC[C@@H](C)[C@@](O)(O2)C(=O)C(=O)N2CCCC[C@H]2C(=O)O[C@H]([C@H](C)C[C@@H]2CC[C@@H](OC(=O)C(C)(CO)CO)[C@H](OC)C2)CC(=O)[C@H](C)/C=C(\C)[C@@H](O)[C@@H](OC)C(=O)[C@H](C)C[C@H](C)/C=C/C=C/C=C/1C [Torisel] |  |  |  |  | activity in NOS/SCID xenograft mouse model of acute lymphoblastic leukemia [2]: active
7 | Oc1cccc(-c2nc(N3CCOCC3)c3oc4ncccc4c3n2)c1 [PI103, 3-(4-(4-morpholinyl)pyrido[3′,2′:4,5]furo[3,2-d]pyrimidin-2-yl)phenol] |  |  |  |  | activity in human tumor xenograft models ([3]; I.P. dosing in mice, U87MG, PC3, MDA-MB-468, MDA-MB-435, HCT 116, SKOV3, IGROV-1): demonstrated activity
8 | CN1CCN(c2cccc(Oc3cc(=O)[nH]c4ccccc34)c2)CC1 [Example 140, 4-[3-(4-methylpiperazin-1-yl)phenoxy]quinolin-2(1H)-one] |  |  |  |  | melting point: 218 to 221 °C
9 | Cn1c(=O)n(-c2ccc(C(C)(C)C#N)cc2)c2c3cc(-c4cnc5ccccc5c4)ccc3ncc21 [NVP-BEZ-235, 2-methyl-2-(4-(3-methyl-2-oxo-8-(quinolin-3-yl)-2,3-dihydro-1H-imidazo[4,5-c]quinolin-1-yl)phenyl)propanenitrile] |  |  |  |  | activity in human tumor xenograft models ([3]; prostrate (PC-3) and glioblastoma (U-87)): demonstrated activity
10 | FC(F)c1nc2ccccc2n1-c1nc(N2CCOCC2)nc(N2CCOCC2)n1 [ZSTK474, 2-(2-difluoromethylbenzoimidazol-1-yl)-4,6-dimorpholino-1,3,5-triazine] |  |  |  |  | IC50 (mTOR): > 10 µM; tumor growth in mouse human xenograft cancer models ([3]; chronic oral administration, 400 mg/kg, A549, PC-3, WiDr): completely inhibited growth
11 | O=c1cc(Oc2ccc(Br)cc2)c2ccccc2[nH]1 | 50 | > 60 | 2.2 | 4.11 | 
12 | O=c1cc(Oc2ccc(-c3cn[nH]c3)cc2)c2ccccc2[nH]1 | 60 | 60 | > 20 | 2.17 | 
13 | O=c1cc(Oc2cccc(NCc3cnc4[nH]ccc4c3)c2)c2ccccc2[nH]1 | 13 | 4.9 | 0.12 | 3.42 | 
14 | O=c1cc(Oc2cccc(NCc3ccncc3)c2)c2ccccc2[nH]1 | 10 | 5 | 0.15 | > 10 | 
15 | O=c1cc(Oc2ccc(OC(F)(F)F)cc2)c2ccccc2[nH]1 | > 60 | > 60 | > 20 | > 10 | 
16 | O=c1cc(Oc2ccc(Cl)cc2)c2ccccc2[nH]1 | 49 | > 60 | 0.96 | 2.48 | 
17 | Nc1ccc(Oc2cc(=O)[nH]c3ccccc23)cc1 | 27 | 7.5 | 0.16 | 2.22 | 
18 | Nc1ccc2[nH]c(=O)cc(Oc3ccccc3)c2c1 | > 60 | > 60 | > 20 | 2.57 | 
19 | O=c1cc(Oc2cccc([N+](=O)[O-])c2)c2ccccc2[nH]1 | > 60 | > 60 | 2.25 | > 10 | 
20 | O=c1cc(Oc2ccccc2)c2cc(-c3cccnc3)ccc2[nH]1 | > 60 | > 60 | 8.5 | 7.44 | 
21 | O=c1cc(Oc2cccc(-c3ccnc(N4CCNCC4)c3)c2)c2ccccc2[nH]1 | 8.5 | 9 | 0.55 | 15 | 

Row | SMILES | IC50 [4] [µM] | IC50 [5] [µM] | IC50 (human TOR (FLAG-TOR)) [µM] | IC50 (PI3Kα) [µM] | further results
22 | O=c1cc(Oc2cccc(-c3ccc(NCCCl)cc3)c2)c2ccccc2[nH]1 | 11 | 6.2 | 0.44 | > 10 | 
23 | Cc1ccc(Oc2cc(=O)[nH]c3ccccc23)cc1C | > 60 | > 60 | 0.69 | > 10 | 
24 | CC(Nc1cccc(Oc2cc(=O)[nH]c3ccccc23)c1)c1cccnc1 (stereo not shown) | 11 | 3.3 | 0.19 | 3.58 | 
25 | N#C[BH2-][n+]1cccc(CNc2cccc(Oc3cc(=O)[nH]c4ccccc34)c2)c1 | 4.2 | 2.3 | 0.03 | 7.38 | 
26 | N#CCc1cccc(Oc2cc(=O)[nH]c3ccccc23)c1 | 22 | 4.2 | 0.3 | 5.8 | 
27 | COC(=O)c1cc(Oc2cc(=O)[nH]c3ccccc23)ccc1OC | > 60 | 7.9 | 1.28 | > 10 | 
28 | CC(C)(C)OC(=O)NC1(CNc2cccc(Oc3cc(=O)[nH]c4ccccc34)c2)CCCC1 | 8.5 | 4.1 | 0.23 | 5.13 | 
29 | Nc1ccc(-c2cccc(Oc3cc(=O)[nH]c4ccccc34)c2)cc1 | 30 | 11 | 0.29 | 9.52 | 
30 | CC(C)OC(=O)Nc1ccc(-c2cccc(Oc3cc(=O)[nH]c4ccccc34)c2)cc1 | 5 | 4 | 1.35 | > 10 | 
31 | O=c1cc(Oc2cccc(-c3ccc(NCCN4CCCC4)cc3)c2)c2ccccc2[nH]1 | 4.5 | 3.05 | 0.18 | > 10 | 
32 | O=c1cc(Oc2ccc(F)cc2)c2ccccc2[nH]1 | > 60 | 18 | 0.6 | 1.59 | 
33 | O=c1cc(Oc2cccc(-c3ccncc3)c2)c2ccccc2[nH]1 | 60 | 7 | 0.37 | > 10 | 
34 | NS(=O)(=O)c1ccc(-c2cccc(Oc3cc(=O)[nH]c4ccccc34)c2)cc1 | 60 | > 60 | 0.26 | > 10 | 
35 | O=c1cc(Oc2ccccc2)c2cc(-c3ccoc3)ccc2[nH]1 | 4.5 | > 60 | 7.3 | 6.96 | 
36 | COc1ccc(CNc2cccc(Oc3cc(=O)[nH]c4ccccc34)c2)cn1 | 12 | 4.1 | 0.31 | 4.07 | 
37 | Nc1ccc(-c2cccc(Oc3cc(=O)[nH]c4ccccc34)c2)cn1 | 1.95 | 23 | 0.09 | 9 | 
38 | O=C(NCCO)c1ccc(-c2cccc(Oc3cc(=O)[nH]c4ccccc34)c2)cc1 | > 60 | > 60 | 0.23 | > 10 | 
39 | O=c1cc(Oc2cccc(-c3ccc(N4CCOCC4)nc3)c2)c2ccccc2[nH]1 | > 60 | 12 | 0.2 | > 10 | 
40 | O=c1cc(Oc2cccc(-c3ccc(NC4CCNCC4)cc3)c2)c2ccccc2[nH]1 | 3.8 | 2.3 | 0.09 | > 10 | 
41 | CS(=O)(=O)Nc1ccc(-c2cccc(Oc3cc(=O)[nH]c4ccccc34)c2)cc1 | 26 | 5.8 | 0.27 | > 10 | 
42 | Cn1cc(-c2ccc3[nH]c(=O)cc(Oc4ccccc4)c3c2)cn1 | > 60 | > 60 | > 20 | > 10 | 
